“Also recorded” adds a separate entry of the source. Like-named read-outs stand apart in the source and are kept apart here.
Experiments:
AIDS virus [1] = settings: background; cited from earlier work
[2] = test system: reverse transcriptase of AIDS virus; settings: background; cited from earlier work
[3] = test system: AIDS virus (virus derived from Tall-1/HTLV-III) in Molt-4/cl. No. 8 cells; assay: Anti-AIDS virus activities, reverse transcriptase activities (Molt-4/cl. No. 8 cells); format: cell-based, HIV (human immunodeficiency virus)
Procedure: Virus derived from Tall-1/HTLV-III were adsorbed on Molt-4/cl. No. 8 cells. Then, the cells were washed with a culture medium to remove virus not adsorbed on the cells. The cells thus obtained were subjected to the following test.
[…] Culturing was conducted for 8 days, and cytopathic effects (CPE) by virus were observed. Further, on the 8th day, the supernatant of the culture medium was sampled and subjected to the measurement of reverse transcriptase activities. The cells were subjected to an indirect immunofluorescence assay to detect the virus antigen.
The anti-AIDS virus activities were studied with respect to the sulfates of scleroglucan and pendulan thus obtained, in accordance with the method as used in Example 1(3).
Schizophyllans having different molecular weights were sulfated in accordance with method A in Example 1 (polysaccharide: 0.5 g; pyridine/sulfuric anhydride complex: 5 g; reaction time: 5 hours). The anti-AIDS virus activities were studied with respect to the polysaccharide sulfates thus obtained, in accordance with the method as described in Example 1(3). As the control, dextran sulfate was used.

AIDS virus in MT-4 cells = assay: Anti-AIDS virus activities, reverse transcriptase activities (MT-4 cells); format: cell-based, HIV (human immunodeficiency virus); settings: 10 days, virus (-) 2481, virus (+) 348764
Procedure: Further, anti-AIDS virus activities of schizophyllan sulfates were studied by using MT-4 cells. Cells were prepared in the same manner as in Example 1(3), and into each well, 1 ml of a cell suspension containing 14×10^4 cells/ml, 1 ml of a culture medium and a sample solution were added, followed by culturing for 10 days. The anti-AIDS virus activities of schizophyllan sulfates were studied by the observation of the cytopathic effects, by the measurement of reverse transcriptase activities and by the indirect immunofluorescence assay.

[4] = test system: AIDS virus in human peripheral lymphocytes; assay: Anti-AIDS virus activities in a human peripheral blood lymphocytes system, reverse transcriptase activities; format: cell-based, HIV (human immunodeficiency virus); settings: Case 2, 100 μg/ml
Procedure: In the foregoing Examples, the anti-AIDS virus activities of schizophyllan sulfates were studied in a subcultured cell line. In this Example, a test was conducted for the effects of schizophyllan sulfates for suppressing proliferation of AIDS virus in a human peripheral lymphocytes system. Lymphocytes were separated from peripheral blood of an AIDS patient by Ficoll-Paque Separation, washed three times with a serum-free culture medium and suspended in a culture medium containing 10% of FCS. Adsorbable cells were removed, and suspended cells were collected and suspended in a culture medium. Then, PHA and IL-2 were added thereto. Healthy human lymphocytes were prepared 3 days ahead by the above-mentioned method. Into each well of a microplate having 24 wells, 10^6 /1 ml of patient's lymphocytes, a culture medium, 10^6 /1 ml of healthy human lymphocytes and a schizophyllan sulfate solution were introduced, mixed and cultured. On the seventh day and eleventh day after initiation of the culturing, the supernatant was sampled and subjected to the measurement of reverse transcriptase activities. Into each well, a sampled supernatant and the same amount of a culture medium were introduced and culturing was continued.

AIDS virus [5] = assay: Anti-AIDS virus activities (general statements, test not specified); set-up: species or system HIV (human immunodeficiency virus); settings: general findings of the inventors
[6] = test system: spleen of a mouse (spleen cells); assay: Mitogenic activities (3H-thymidine uptake, mouse spleen cells); format: cell-based
Procedure: A spleen of a mouse was aseptically taken out and dispersed in a culture medium to obtain a cell suspension containing 3×10^6 cells/ml. The cells were subdivided into wells of a 96 well-microplate so as to adjust the cell number in each well to 3×10^5. A culture medium and a sample were added to each well, followed by culturing for 3 days. On the third day, 0.5 μCi of ^3 H-thymidine was added to each well, and culturing was conducted for further 7 hours. Then, the cells were harvested and thoroughly washed, and the amount of ^3 H-thymidine taken into the cells was measured by a liquid scintillation counter.

Sarcoma 180 cells = assay: Anti-tumor activities, Sarcoma 180 in mice; format: in vivo
Procedure: 2×10^6 Sarcoma 180 cells were transplanted subcutaneously into the groins of mice. Twenty four hours later, 0.05 ml of a 0.5% PBS solution of schizophyllan sulfate was administered to a rear femoral muscle. Thirty days later, the mice were killed and dissected, and tumors were taken out and weighed. The tumor inhibition rates were culculated by the following equation. [formula] where A and B denote the average tumor weights (g) of the control group and the treated group.
Each group consisted of 6 mice. To the control group, PBS was administered in the same amount as in the tested group.

## NC(=O)c1ncn([C@@H]2O[C@H](CO)[C@@H](O)[C@H]2O)n1 [ribavirin]
AIDS virus [1]
  anti-AIDS virus activities: known to exibit anti-AIDS effects

## Cc1ccc(C(=O)Nc2ccc(S(=O)(=O)O)c3cc(S(=O)(=O)O)cc(S(=O)(=O)O)c23)cc1NC(=O)c1cccc(NC(=O)Nc2cccc(C(=O)Nc3cc(C(=O)Nc4ccc(S(=O)(=O)O)c5cc(S(=O)(=O)O)cc(S(=O)(=O)O)c45)ccc3C)c2)c1 [suramin]
AIDS virus [1]
  anti-AIDS virus activities: known to exibit anti-AIDS effects

## .iota.-carrageenan
[2]
  inhibition of the reverse transcriptase of AIDS virus: have similar physiological activities

## Dextran sulfate
[3]; 100 μg/ml, Molt-4/cl. No. 8 cells, 8 days, Table 3, virus (-) 199, virus (+) 27557
  Reverse transcriptase activities (CPM): 1947 ± 64 CPM
[3]; 100 μg/ml, Table 8, virus (-) 621, virus (+) 51344
  Reverse transcriptase activities (CPM): 1781 ± 169 CPM
[3]; 100 μg/ml, Table 9, virus (-) 854, virus (+) 49291
  Reverse transcriptase activities (CPM): 1738 ± 251 CPM
[3]; 500 μg/ml, Molt-4/cl. No. 8 cells, 8 days, Table 3, virus (-) 199, virus (+) 27557
  Reverse transcriptase activities (CPM): 703 ± 56 CPM
[3]; 500 μg/ml, Table 8, virus (-) 621, virus (+) 51344
  Reverse transcriptase activities (CPM): 923 ± 32 CPM
[3]; 500 μg/ml, Table 9, virus (-) 854, virus (+) 49291
  Reverse transcriptase activities (CPM): 923 ± 87 CPM
AIDS virus in MT-4 cells; 100 μg/ml
  Reverse transcriptase activities (CPM): 22317 ± 4502 CPM
AIDS virus in MT-4 cells; 500 μg/ml
  Reverse transcriptase activities (CPM): 18501 ± 2249 CPM
[4]; 7th day, no addition 2872
  Reverse transcriptase activities (CPM): 1789 ± 53 CPM
[4]; 11th day, no addition 80436
  Reverse transcriptase activities (CPM): 42792 ± 14582 CPM
[4]; 18th day, no addition 67665
  Reverse transcriptase activities (CPM): 280741 ± 31039 CPM
AIDS virus [5]
  anti-AIDS virus activities: stronger activities than the sulfates of e.g. mannan, pullulan and alginic acid; also recorded: have anti-AIDS virus activities
AIDS virus [1]
  anti-AIDS virus activities: have anti-AIDS virus activities

## Schizophyllan
[6]
  mitogenic activities: not observed
[6]; control substances, concentration not stated (printed under the 100 μg/ml column), Table 2
  Mitogenic activities, Count (CPM), control: 1981 ± 184 CPM
Sarcoma 180 cells; 0.05 ml of 0.5% PBS solution, rear femoral muscle, 30 days
  Control rate (%) (tumor inhibition rate): 99.0%
Sarcoma 180 cells; 0.05 ml of 0.5% PBS solution, rear femoral muscle, 30 days, PBS control 4.07
  Average weight (g) of tumor (wt ± S.E.): 0.04 ± 0.016 g
Sarcoma 180 cells; mouse, in vivo
  anti-tumor activities: having anti-tumor activities

## chondroitin sulfate
[2]
  inhibition of the reverse transcriptase of AIDS virus: have similar physiological activities

## dextran
AIDS virus [1]
  anti-AIDS virus activities: having no anti-AIDS virus activities

## heparin
[2]
  inhibition of the reverse transcriptase of AIDS virus: have similar physiological activities

## interferon
AIDS virus [1]
  anti-AIDS virus activities: known to exibit anti-AIDS effects

## k-carrageenan
[2]
  inhibition of the reverse transcriptase of AIDS virus: have similar physiological activities

## lentinan sulfate
AIDS virus [5]
  anti-AIDS virus activities: have anti-AIDS virus activities

## λ-carrageenan
[2]
  inhibition of the reverse transcriptase of AIDS virus: have similar physiological activities

— US5053398A, “Sulfated homopolysaccharides as anti-AIDS virus agents” (Taito Co., Ltd., priority 1988, dated 1991)
